Laboratory results: ChEMBL document CHEMBL5365412, “Discovery of benzodiazepine derivatives as a new class of covalent inhibitors of SARS-CoV-2 main protease” (Bioorg Med Chem Lett, 2023)

Experiments:
[1] = molecular target: Replicase polyprotein 1ab (Severe acute respiratory syndrome coronavirus 2) (UniProt P0DTD1); experiment: Binding affinity to SARS-CoV-2 main protease assessed as change in melting temperature by DSF assay
[2] = molecular target: Replicase polyprotein 1ab (Severe acute respiratory syndrome coronavirus 2, UniProt P0DTD1); experiment: Inhibition of SARS-CoV-2 main protease by FRET assay

SMILES	ΔTm [1] [°C]	IC50 [2] [µM]
CC1(C)CC(=O)C2=C(C1)Nc1cc([N+](=O)[O-])ccc1N(C(=O)CCl)C2C1CCC1 (stereo unspecified)	2.72	9.57
Cc1ccc(C2C3=C(CCCC3=O)Nc3cc([N+](=O)[O-])ccc3N2C(=O)CCl)cc1 (stereo unspecified)	4.44	2.35
Cc1ccc(C2C3=C(CC(C)(C)CC3=O)Nc3cc([N+](=O)[O-])ccc3N2C(=O)CCl)cc1 (stereo unspecified)	3.27	3.94
CC1CC(=O)C2=C(C1)Nc1cc([N+](=O)[O-])ccc1N(C(=O)CCl)C2C1CCC1 (stereo unspecified)	2.74	7.32
CC1CC(=O)C2=C(C1)Nc1cc([N+](=O)[O-])ccc1N(C(=O)CCl)C2C1CC1 (stereo unspecified)	4.66	9.06
COc1ccc(C2C3=C(CCCC3=O)Nc3cc([N+](=O)[O-])ccc3N2C(=O)CCl)cc1 (stereo unspecified)	4.55	2.05
O=C1CCCC2=C1C(C1CCCC1)N(C(=O)CCl)c1ccc([N+](=O)[O-])cc1N2 (stereo unspecified)	6.27	1.92
O=C1CCCC2=C1C(c1ccc(OC(F)(F)F)cc1)N(C(=O)CCl)c1ccc([N+](=O)[O-])cc1N2 (stereo unspecified)	3.65	2.03
CC1CC(=O)C2=C(C1)Nc1cc([N+](=O)[O-])ccc1N(C(=O)CCl)C2c1ccc(OC(F)(F)F)cc1 (stereo unspecified)	0.13	4.15
O=C1CCCC2=C1C(C1CCC1)N(C(=O)CCl)c1ccc([N+](=O)[O-])cc1N2 (stereo unspecified)	5.83	2.48
N#Cc1ccc2c(c1)NC1=C(C(=O)CCC1)C(c1ccc(C(F)(F)F)cc1)N2C(=O)CCl (stereo unspecified)	6.02	1.84
CC1CC(=O)C2=C(C1)Nc1cc([N+](=O)[O-])ccc1N(C(=O)CCl)C2c1ccc(F)cc1F (stereo unspecified)	3.25	6.21
CC1C2=C(CCCC2=O)Nc2cc([N+](=O)[O-])ccc2N1C(=O)CCl (stereo unspecified)	4.5	3.69
CC1(C)CC(=O)C2=C(C1)Nc1cc([N+](=O)[O-])ccc1N(C(=O)CCl)C2c1ccc(F)cc1F (stereo unspecified)	2.94	9.55
CC1C2=C(CC(C)(C)CC2=O)Nc2cc([N+](=O)[O-])ccc2N1C(=O)CCl (stereo unspecified)	1.32	23.3
O=C1CCCC2=C1C(c1ccccc1)N(C(=O)CCl)c1ccc([N+](=O)[O-])cc1N2 (stereo unspecified)	5.71	1.67
Cc1ccc(C2C3=C(CC(C)CC3=O)Nc3cc([N+](=O)[O-])ccc3N2C(=O)CCl)cc1 (stereo unspecified)	1.62	3.35
CC1(C)CC(=O)C2=C(C1)Nc1cc([N+](=O)[O-])ccc1N(C(=O)CCl)C2C1CCCCC1 (stereo unspecified)	4.64	5.26
CC1CC(=O)C2=C(C1)Nc1cc([N+](=O)[O-])ccc1N(C(=O)CCl)C2C (stereo unspecified)	3.21	11

SMILES	ΔTm [1] [°C]	IC50 [2] [µM]
O=C1CCCC2=C1C(c1ccc(C(F)(F)F)cc1)N(C(=O)CCl)c1ccc([N+](=O)[O-])cc1N2 (stereo unspecified)	6.6	1.02
O=C1CCCC2=C1CN(C(=O)CCl)c1ccc([N+](=O)[O-])cc1N2	4.1	5.11
CC1CC(=O)C2=C(C1)Nc1cc([N+](=O)[O-])ccc1N(C(=O)CCl)C2C1CCCCC1 (stereo unspecified)	2.57	3.63
CC1(C)CC(=O)C2=C(C1)Nc1cc([N+](=O)[O-])ccc1N(C(=O)CCl)C2C1CC1 (stereo unspecified)	2.01	13.3
O=C1CCCC2=C1C(c1ccc(F)cc1F)N(C(=O)CCl)c1ccc([N+](=O)[O-])cc1N2 (stereo unspecified)	2.95	4.09
CC1(C)CC(=O)C2=C(C1)Nc1cc([N+](=O)[O-])ccc1N(C(=O)CCl)C2c1ccccc1 (stereo unspecified)	4.74	4.52
COc1ccc(C2C3=C(CC(C)(C)CC3=O)Nc3cc([N+](=O)[O-])ccc3N2C(=O)CCl)cc1 (stereo unspecified)	-2.76	4.52
CC1CC(=O)C2=C(C1)Nc1cc([N+](=O)[O-])ccc1N(C(=O)CCl)C2c1ccc(C(F)(F)F)cc1 (stereo unspecified)	4.02	3.31
CC1(C)CC(=O)C2=C(C1)Nc1cc([N+](=O)[O-])ccc1N(C(=O)CCl)C2C1CCCC1 (stereo unspecified)	3.53	9.12
COc1ccc(C2C3=C(CC(C)CC3=O)Nc3cc([N+](=O)[O-])ccc3N2C(=O)CCl)cc1 (stereo unspecified)	3.13	4.45
CC1CC(=O)C2=C(C1)Nc1cc([N+](=O)[O-])ccc1N(C(=O)CCl)C2C1CCCC1 (stereo unspecified)	3.01	5.15
CC1(C)CC(=O)C2=C(C1)Nc1cc([N+](=O)[O-])ccc1N(C(=O)CCl)C2	1.85	24.4
CC1CC(=O)C2=C(C1)Nc1cc([N+](=O)[O-])ccc1N(C(=O)CCl)C2 (stereo unspecified)	2.79	11.5
CC1CC(=O)C2=C(C1)Nc1cc([N+](=O)[O-])ccc1N(C(=O)CCl)C2c1ccccc1 (stereo unspecified)	3.16	3.36
CC1(C)CC(=O)C2=C(C1)Nc1cc([N+](=O)[O-])ccc1N(C(=O)CCl)C2c1ccc(C(F)(F)F)cc1 (stereo unspecified)	-0.54	3.73
CC1(C)CC(=O)C2=C(C1)Nc1cc([N+](=O)[O-])ccc1N(C(=O)CCl)C2c1ccc(OC(F)(F)F)cc1 (stereo unspecified)	-1.64	5.68
O=C1CCCC2=C1C(C1CC1)N(C(=O)CCl)c1ccc([N+](=O)[O-])cc1N2 (stereo unspecified)	4.77	2.55
O=C1CCCC2=C1C(C1CCCCC1)N(C(=O)CCl)c1ccc([N+](=O)[O-])cc1N2 (stereo unspecified)	7.14	1.59
COC(=O)c1ccc2c(c1)NC1=C(C(=O)CCC1)C(c1ccc(C(F)(F)F)cc1)N2C(=O)CCl (stereo unspecified)	8.45	0.18
